Measured values as given in the supplement of paper PMC10307832.

What was measured:
Experiment in all cases: relative viability (nuclei count vs DMSO), 5 days (fraction); higher = more cells survive
[1] = compound: C1=CC2=C(C=C(C(=C2N=C1)O)N=NC3=CC4=C(C=C3)C=C(C=C4)S(=O)(=O)O)S(=O)(=O)O + Cc1cc(Nc2cc(N3CCN(C)CC3)nc(Sc3ccc(NC(=O)C4CC4)cc3)n2)n[nH]1 [Tozasertib] (partner 0.1 µM)
Outline: (§1)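 Medians of duplicate plates are given as relative viability. That measure is the nuclei count in treated wells divided by the count in vehicle wells. Counts were taken on 4× images of lung cancer cell lines in 1536-well plates, 5 days after pin-tool dosing the day after seeding with one drug alone or a fixed anchor-drug dose plus five library-drug doses (not always all listed) in √10 steps.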

AT-7519 + Linsitinib = compound: O=C(NC1CCNCC1)c1n[nH]cc1NC(=O)c1c(Cl)cccc1Cl [AT-7519] + C[C@]1(O)C[C@@H](c2nc(-c3ccc4ccc(-c5ccccc5)nc4c3)c3c(N)nccn32)C1 [Linsitinib] (partner 1 µM)
Outline: as §1

AT-7519 + Navitoclax = compound: O=C(NC1CCNCC1)c1n[nH]cc1NC(=O)c1c(Cl)cccc1Cl [AT-7519] + CC1(C)CCC(c2ccc(Cl)cc2)=C(CN2CCN(c3ccc(C(=O)NS(=O)(=O)c4ccc(N[C@H](CCN5CCOCC5)CSc5ccccc5)c(S(=O)(=O)C(F)(F)F)c4)cc3)CC2)C1 [Navitoclax] (partner 0.5 µM)
Outline: as §1

AT-7519 + Palbociclib = compound: O=C(NC1CCNCC1)c1n[nH]cc1NC(=O)c1c(Cl)cccc1Cl [AT-7519] + CC(=O)c1c(C)c2cnc(Nc3ccc(N4CCNCC4)cn3)nc2n(C2CCCC2)c1=O [Palbociclib] (partner 0.5 µM)
Outline: as §1

Cell Line | relative viability ([1]; first compound 0.08 µM) | relative viability ([1]; first compound 0.253 µM) | relative viability ([1]; first compound 0.8 µM) | relative viability ([1]; first compound 2.53 µM) | relative viability ([1]; first compound 8 µM) | relative viability (AT-7519 + Linsitinib; first compound 0.01 µM) | relative viability (AT-7519 + Linsitinib; first compound 0.03162 µM) | relative viability (AT-7519 + Linsitinib; first compound 0.3162 µM) | relative viability (AT-7519 + Linsitinib; first compound 1 µM) | relative viability (AT-7519 + Navitoclax; first compound 0.01 µM) | relative viability (AT-7519 + Navitoclax; first compound 0.03162 µM) | relative viability (AT-7519 + Navitoclax; first compound 0.3162 µM) | relative viability (AT-7519 + Navitoclax; first compound 1 µM) | relative viability (AT-7519 + Palbociclib; first compound 0.01 µM) | relative viability (AT-7519 + Palbociclib; first compound 0.03162 µM) | relative viability (AT-7519 + Palbociclib; first compound 0.3162 µM) | relative viability (AT-7519 + Palbociclib; first compound 1 µM)
LXF-289 | 0.234 | 0.159 | 0.179 | 0.19 | 0.228 | 0.957 | 1.02 | 1.04 | 0.933 | 0.984 | 1.07 | 1 | 0.917 | 0.597 | 0.656 | 0.527 | 0.577
PC-14 | 0.607 | 0.574 | 0.55 | 0.646 | 0.594 | 0.927 | 0.873 | 0.909 | 0.848 | 0.994 | 1.03 | 0.952 | 0.719 | 0.433 | 0.502 | 0.338 | 0.0604
NCI-H1666 | 0.621 | 0.628 | 0.609 | 0.657 | 0.434 | 0.727 | 0.784 | 0.807 | 0.376 | 0.893 | 0.758 | 0.724 | 0.316 | 0.642 | 0.658 | 0.674 | 0.655
NCI-H2085 | 0.928 | 0.742 | 0.784 | 0.886 | 0.813 | 0.904 | 0.857 | 0.726 | 0.637 | 1.18 | 1.21 | 0.967 | 0.658 | 0.454 | 0.503 | 0.515 | 0.608
NCI-H1734 | 0.263 | 0.249 | 0.261 | 0.289 | 0.238 | 0.92 | 0.874 | 0.796 | 0.549 | 0.893 | 0.758 | 0.686 | 0.452 | 0.288 | 0.319 | 0.353 | 0.167
NCI-H2126 | 0.911 | 0.824 | 0.843 | 0.938 | 0.792 | 0.747 | 0.744 | 0.682 | 0.675 | 0.893 | 0.866 | 0.83 | 0.823 | 0.348 | 0.352 | 0.358 | 0.341
EMC-BAC-2 | 0.303 | 0.29 | 0.303 | 0.337 | 0.302 | 0.823 | 0.816 | 0.778 | 0.77 | 0.89 | 1.02 | 1.05 | 1.18 | 0.504 | 0.506 | 0.468 | 0.513
NCI-H1993 | 0.576 | 0.576 | 0.581 | 0.56 | 0.548 | 0.707 | 0.738 | 0.663 | 0.585 | 0.895 | 0.781 | 0.984 | 0.548 | 0.759 | 0.638 | 0.612 | 0.229
NCI-H520 | 0.428 | 0.454 | 0.439 | 0.369 | 0.42 | 1.01 | 0.88 | 0.82 | 0.454 | 1.14 | 0.991 | 0.986 | 0.605 | 0.226 | 0.197 | 0.209 | 0.194
